Data taken from US6660804B1, “Cyclodextrin polymers and/or cyclodextrin derivatives with complexing properties and ion-exchange properties and method for the production thereof” (Universite des Sciences et Technologies de Lille, priority 1999, dated 2003).

Columns and labels:
[1] = Diffusion of CI Basic Red 22 through 12000-14000 d dialysis membrane (complexing); format: physicochemical; settings: 50 ml 10^-4 M dye plus 0.2837 g additive inside membrane, 250 ml distilled water outside, after 5 hours of dialysis; dye alone 0.2722
Method: Three solutions of 50 ml of 10^−4 M CI Basic Red 22 basic dye were introduced into 12000-14000 d dialysis membranes. The first fraction contained the dye alone; the second contained the dye and 0.2837 g of β cyclodextrin (i.e., 5×10^−3 mol/l); the third contained the dye and 0.2837 g of soluble cyclodextrin copolymer obtained using the method described in Example 1. The three membranes with the three different dye solutions were each immersed in 250 ml of distilled water. Diffusion of the dye from the interior of the membrane into the distilled water surrounding the membrane was monitored by determining the absorbance of the external solution at 540 nanometers (nm). The absorbance values obtained for the external solutions for the three fractions after 5 hours of dialysis were 0.2722 for the first fraction, 0.1873 for the second fraction and only 0.0237 for the third fraction.

[2] = Diffusion of 2-naphthol through 12000-14000 d dialysis membrane (complexing); format: physicochemical; settings: 50 ml 10^-3 M 2-naphthol plus 0.2837 g β cyclodextrin or 0.3317 g copolymer inside membrane, 250 ml distilled water outside, after 76 hours of dialysis; 2-naphthol alone 0.2865
Method: Three solutions of 50 ml of 10−3 M 2-naphthol were introduced into 12000-14000 d dialysis membranes. The first fraction contained 2-naphthol alone; the second contained the dye and 0.2837 g of β cyclodextrin (i.e., 5×10^−3 mol/l); the third contained the dye and 0.3317 g of the soluble cyclodextrin copolymer obtained using the method described in Example 1. The three membranes with the three different dye solutions were each immersed in 250 ml of distilled water. Diffusion of the dye from the interior of the membrane into the distilled water surrounding the membrane was monitored by determining the absorbance of the external solution at 327 nm. The absorbance values obtained for the external solutions for the three fractions after 76 hours of dialysis were 0.2865 for the first fraction, 0.3030 for the second fraction and only 0.2574 for the third fraction.

absorbance of the external solution at 540 nm [1]: 0.1873
absorbance of the external solution at 327 nm [2]: 0.3030
Compound: OC[C@H]1O[C@@H]2O[C@H]3[C@H](O)[C@@H](O)[C@@H](O[C@H]4[C@H](O)[C@@H](O)[C@@H](O[C@H]5[C@H](O)[C@@H](O)[C@@H](O[C@H]6[C@H](O)[C@@H](O)[C@@H](O[C@H]7[C@H](O)[C@@H](O)[C@@H](O[C@H]8[C@H](O)[C@@H](O)[C@@H](O[C@H]1[C@H](O)[C@H]2O)O[C@@H]8CO)O[C@@H]7CO)O[C@@H]6CO)O[C@@H]5CO)O[C@@H]4CO)O[C@@H]3CO [β cyclodextrin]
